Reference: publication PMC6178849, “Activation of Glutathione Peroxidase 4 as a Novel Anti-inflammatory Strategy” (Frontiers in Pharmacology, 2018)

Target: T1, glutathione peroxidase 4 (hGPX4-C) (Homo sapiens, UniProt P36969, U73C)
T1 construct: gene GPX4; human cytosolic GPX4 (c-GPX4), his-tagged, expressed in E. coli M15
Experiment: activation of purified GPX4 in a glutathione reductase/NADPH coupled assay; Tm shift about […]°C; D23A mutant loses activation; CETSA in HEK293T cells
Type: biochemical
Settings: read-out: % (maximum activation)

T1 sequence (P36969 other isoform, or with tags, fused parts or gaps U73C): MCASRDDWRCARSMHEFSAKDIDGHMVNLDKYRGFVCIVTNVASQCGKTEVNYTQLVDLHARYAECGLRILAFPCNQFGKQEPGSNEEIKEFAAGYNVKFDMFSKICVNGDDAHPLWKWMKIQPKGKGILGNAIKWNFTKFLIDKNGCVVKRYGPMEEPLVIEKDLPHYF

## NC1=NC2(O)C(=O)c3ccccc3C2(O)N1 (stereo not shown) [compound 102, PKUMDL-LC-102]
  Emax: 236%
